Test results: patent US4755524A, “Novel phenolic thioethers as inhibitors of 5-lipoxygenase” (G. D. Searle & Co., priority 1987, dated 1988)
Structures can show the parent of a compound that is named as a salt.

What was measured:
[1] = more potent than histamine; cited from earlier work
5-lipoxygenase = biological target: T1, 5-lipoxygenase (Rattus norvegicus, UniProt P12527); test: Inhibition of 5-lipoxygenase, in vitro; type: biochemical; settings: 100,000×g supernatant of RBL-1 homogenate, 14C-arachidonic acid, 5-HETE measured
T1 construct: supernatant fraction of Rat Basophilic Leukemia Cell Homogenate (RBL-1) serves as a 5-lipoxygenase enzyme source; endogenous in cells; host or cells: RBL-1 (rat basophilic leukemia) cells, 100,000×g supernatant of homogenate
T1 sequence (P12527 1-673): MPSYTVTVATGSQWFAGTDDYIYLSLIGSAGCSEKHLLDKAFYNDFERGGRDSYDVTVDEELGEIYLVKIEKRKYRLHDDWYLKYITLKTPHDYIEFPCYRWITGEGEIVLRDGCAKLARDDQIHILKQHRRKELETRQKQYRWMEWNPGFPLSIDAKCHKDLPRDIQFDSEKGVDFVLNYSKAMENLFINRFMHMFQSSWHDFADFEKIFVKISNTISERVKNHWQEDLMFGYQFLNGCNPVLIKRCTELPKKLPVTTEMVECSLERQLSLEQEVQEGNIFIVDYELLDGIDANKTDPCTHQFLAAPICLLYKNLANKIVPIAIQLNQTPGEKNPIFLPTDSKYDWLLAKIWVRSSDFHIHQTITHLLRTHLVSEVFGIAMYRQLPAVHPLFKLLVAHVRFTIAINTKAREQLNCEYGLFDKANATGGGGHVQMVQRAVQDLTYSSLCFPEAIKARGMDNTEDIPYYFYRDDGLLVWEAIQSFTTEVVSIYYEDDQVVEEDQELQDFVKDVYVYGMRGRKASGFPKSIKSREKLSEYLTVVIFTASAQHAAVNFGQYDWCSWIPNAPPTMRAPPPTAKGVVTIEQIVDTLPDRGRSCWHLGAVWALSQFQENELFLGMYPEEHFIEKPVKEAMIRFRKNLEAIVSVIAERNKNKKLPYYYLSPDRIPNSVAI
Description: The compounds of the invention are evaluated with respect to 5-lipoxygenaseinhibition according to the following assay procedures.
(1) Inhibition of 5-lipoxygenase, in vitro: anti-inflammatory, anti-allergyactivities.
The 100,000×g supernatant fraction of Rat Basophilic Leukemia Cell Homogenate (RBL-1) serves as a 5-lipoxygenase enzyme source. The enzyme is incubated with [(1-^14 C)-arachidonic acid and Ca++ in the presence and absence of test compound. The product of 5-lipoxygenase, 5-hydroxyeicosatetraenoic acid (5-HETE), is separated by thin-layer chromatography and measured by radioactivity. A compound inhibiting 5-HETE synthesis by 30% or more is considered active at that concentration.

[2] = system: OA-induced bronchoconstriction in the Guinea Pig; test: In vivo inhibition of ovalbumin-induced bronchoconstriction - Anti-allergy assay
Excerpt: (2) In vivo inhibition of ovalbumin-induced bronchoconstriction-Anti-allergy assay.
Adult, male Hartley guinea pigs (300-350 g, fasted) actively sensitized to ovalbumin are utilized in this assay.
Ovalbumin (OA) causes bronchoconstriction when administered to actively-sensitized guinea pigs. The observed bronchoconstriction is comprised of at least two distinct components:
(a) a cyclooxygenase-dependent, rapidly occurring bronchoconstriction mediated by thromboxane A2 and possibly other mediators and
(b) a 5-lipoxygenase dependent slow developing component, dependent upon the de novo generation of LTC4 and LTD4.
All test animals are pretreated with aspirin and pyrilamine to block the occurrence of the rapidly occurring component (a). Compounds which block the generation of LTC4 and LTD4 (5-lipoxygenase inhibitors) or antagonize the activity of LTC4 /LTD4 (leukotriene inhibitors) modulate the severity of the remaining component of this well-characterized anaphylactic response.
Test compounds are administered at screening doses of 50 mg/kg, i.v., or 100 mg/kg, i.g. A compound is rated active in this test if it causes a significant reduction (i.e., p 0.05, student's t-test) in intratracheal insufflation pressure induced by an i.v. injection of ovalbumin (3 mg/ml, i.v.), aspirin (5 mg/kg, i.v.) and propanolol (6 mg/kg i.p.). Treated animals are statistically compared to concurrent vehicle treated controls. Compounds rated active in inhibiting the production of the LTC4 /LTD4 allergic mediators through inhibition of 5-lipoxygenase according to this test are believed to play a significant role in bronchopulmonary allergic conditions, e.g., asthma.

[3] = i.g. @ 3 hr., vehicle 2 (peanut oil)
[4] = i.g. @ 3 hr., vehicle 1 (20% DMSO in polyethylene glycol)

Row | SMILES | IC50 (5-lipoxygenase) | Antagonism of OA-induced bronchoconstriction in the Guinea Pig (min. effective dose) [2, 3] | other results
1 | CCCCC/C=C\C\C=C/C=C/C=C/[C@@H](SC[C@H](NC(=O)CC[C@H](N)C(=O)O)C(=O)NCC(=O)O)[C@@H](O)CCCC(=O)O [LTC4] |  |  | potency relative to histamine in causing long lasting bronchoconstricting effects [1]: at least 100 times
2 | CCOC(=O)CS(=O)(=O)CCSc1cc(C(C)(C)C)c(O)c(C(C)(C)C)c1 [Example 17, ethyl[[2-[[3,5-bis(1,1-dimethylethyl)-4-hydroxyphenyl]thio]ethyl]sulfonyl]acetate] | 300 nM |  | 
3 | CC(C)(C)c1cc(SCCSCC(=O)O)cc(C(C)(C)C)c1O [Example 3, [[2-[[3,5-bis(1,1-dimethylethyl)-4-hydroxyphenyl]thio]ethyl]thio]acetic acid, monosodium salt] |  |  | Antagonism of OA-induced bronchoconstriction in the Guinea Pig (min. effective dose) ([2]; i.g. @ 3 hr., vehicle 1 (20% DMSO in polyethylene glycol), monosodium salt): 100 mg/kg
4 | CC(C)(C)c1cc(SCCOCC(=O)O)cc(C(C)(C)C)c1O [Example 31, [2-[[3,5-bis(1,1-dimethylethyl)-4-hydroxyphenyl]thio]ethoxy]acetic acid] | 7300 nM |  | 
5 | CC(C)(C)c1cc(SCCSCCC(=O)O)cc(C(C)(C)C)c1O [Example 13, 3-[[2-[[3,5-bis(1,1-dimethylethyl)-4-hydroxyphenyl]thio]ethyl]thio]propanoic acid] | 1000 nM |  | Antagonism of OA-induced bronchoconstriction in the Guinea Pig (min. effective dose) ([2]; i.g. @ 5 hr., vehicle 2 (peanut oil)): 100 mg/kg
6 | CC(SCC(=O)O)C(C)Sc1cc(C(C)(C)C)c(O)c(C(C)(C)C)c1 (centres unmarked) [Example 20, [[2-[[3,5-bis(1,1-dimethylethyl)-4-hydroxyphenyl]thio]-1-methylpropyl]thio]acetic acid] | 820 nM | 32 mg/kg | 
7 | COC(=O)CSC(C)C(C)Sc1cc(C(C)(C)C)c(O)c(C(C)(C)C)c1 (centres unmarked) [Example 19, methyl[[2-[[3,5-bis(1,1-dimethylethyl)-4-hydroxyphenyl]thio]-1-methylpropyl]thio]acetate] | 240 nM | 32 mg/kg | 
8 | CC(C)(C)c1cc(SCCSCC(=O)O)cc(C(C)(C)C)c1O [Example 6, [[2-[[3,5-bis(1,1-dimethylethyl)-4-hydroxyphenyl]thio]ethyl]thio]acetic acid, 2,2',2"nitrilotris[ethanol] salt] | 1800 nM |  | Antagonism of OA-induced bronchoconstriction in the Guinea Pig (min. effective dose) [2, 4]: 50 mg/kg
9 | COC(=O)CCCSCCSc1cc(C(C)(C)C)c(O)c(C(C)(C)C)c1 [Example 15, methyl 4-[[2-[[3,5-bis(1,1-dimethylethyl)-4-hydroxyphenyl]thio]ethyl]thio]butanoate] | 120 nM |  | 
10 | O=C(O)CSCCSc1ccc(O)cc1 [Example 37, [[2-[(4-hydroxyphenyl)thio]ethyl]thio]acetic acid, reference compound] | 55000 nM | 100 mg/kg | 
11 | COC(=O)CSCC(O)CSc1cc(C(C)(C)C)c(O)c(C(C)(C)C)c1 (centres unmarked) [Example 42, methyl[[3-[[3,5-bis(1,1-dimethylethyl)-4-hydroxyphenyl]thio]-2-hydroxypropyl]thio]acetate] | 310 nM |  | Antagonism of OA-induced bronchoconstriction in the Guinea Pig (min. effective dose) ([2]; i.g. @ 2 hr., vehicle 1 (20% DMSO in polyethylene glycol)): 50 mg/kg
12 | CC(C)(C)c1cc(SCCSCC(=O)O)cc(C(C)(C)C)c1O [Example 4, [[2-[[3,5-bis(1,1-dimethylethyl)-4-hydroxyphenyl]thio]ethyl]thio]acetic acid] | 1400 nM | 100 mg/kg | 
13 | Cc1cc(SCCSCC(=O)O)ccc1O [Example 34, [[2-[(4-hydroxy-3-methylphenyl)thio]ethyl]thio]acetic acid, reference compound] | ~100000 nM | 100 mg/kg | 
14 | CCOC(=O)C[S+]([O-])CCSc1cc(C(C)(C)C)c(O)c(C(C)(C)C)c1 (centres unmarked) [Example 12, ethyl[[2-[[3,5-bis(1,1-dimethylethyl)-4-hydroxyphenyl]thio]ethyl]sulfinyl]acetate] | 330 nM |  | 
15 | COC(=O)CSCCSc1cc(C(C)(C)C)c(O)c(C(C)(C)C)c1 [Example 8, methyl[[2-[[3,5-bis(1,1-dimethylethyl)-4-hydroxyphenyl]thio]ethyl]thio]acetate] |  |  | Antagonism of OA-induced bronchoconstriction in the Guinea Pig (min. effective dose) [2, 4]: 100 mg/kg
